Here are results for six compounds from patent publication US20080249080A1, “Benzodiazepine Derivatives and Uses Thereof on Medical Field” (priority 2005, published 2008).

The test system of assay [1] is RET/C634R and RET/M918T mutants. Conditions: cited from earlier work.
Assay [2] deals with RET/E768D, RET/L790F, RET/Y791F, RET/A883F and RET/S891A mutants. The settings on record: cited from earlier work.
In assay [3] the test system is RET/V804L and RET/V804M mutants. The settings on record: cited from earlier work.
The target of a further assay is RET kinase (Homo sapiens, UniProt P07949). The settings on record: cited from earlier work.
For assay [4], the system named is K562 (human erythroleucemic cell line). Briefly: Apoptosis by propidium iodide flow cytofluorimetry, K562. The class given is cell-based. Conditions: 10 μM; for percentage of the apoptotic cells in comparison with non treated cells: FIGS. 7-9; for time after which apoptosis is induced: propidium iodide, cytofluorimeter. As for the experimental part:
(§1) The used cellular lines are: K562 (human erythroleucemic cell line), HL60 (human acute promyelocytic leukemia cell line), Jurkat (cell line from acute lymphoblastic T variant leukemias), U937 (acute promyelocitic leukemia cell line) and Glivec resistant K562 (this cell line was supplied kindly by Prof. Carlo Gambacorti-Passerini of the Dipartimento of Clinica Medica, Università of Milan-Bicocca, Monza, Italy) (Gambacorti-Passerini CB, et al, 2002).
(§2) The cell lines were incubated with RS678 and RS779 synthetic compounds at 10 μM concentration for 8, 16 and 24 hours, subsequently washed with PBS and 2.5 mg/ml of propidium iodide. This phenanthridine dye, when intercalated into double-stranded DNA forms a sufficiently stable complex that under excitation emits a red fluorescent light. By means of this coloration it is possible to discriminate in an heterogenous population cells with different DNA contents and therefore to estimate the distribution of the cellular populations based on their DNA contents and whether possibly, as a result from pharmacological treatments, alterations at level of cell cycle have manifested. The labeled cell lines were analyzed using flow FACSort cytofluorimeter.

Assay [5] has as its system HL60 (human acute promyelocytic leukemia cell line). Kind of assay: Apoptosis by propidium iodide flow cytofluorimetry, HL60. The settings on record: 10 μM; for percentage of the apoptotic cells in comparison with non treated cells: FIGS. 7-9; for time after which apoptosis is induced: propidium iodide, cytofluorimeter. It is filed as cell-based. As for the experimental part:
as §1, §2

For assay [6], the system named is Jurkat (cell line from acute lymphoblastic T variant leukemias). Kind of assay: Apoptosis by propidium iodide flow cytofluorimetry, Jurkat. The class given is cell-based. The settings on record: 10 μM; for percentage of the apoptotic cells in comparison with non treated cells: FIGS. 7-9; for time after which apoptosis is induced: propidium iodide, cytofluorimeter. As for the experimental part: as §1, §2

The test system of assay [7] is U937 (acute promyelocitic leukemia cell line). Kind of assay: Apoptosis by propidium iodide flow cytofluorimetry, U937. It is filed as cell-based. Conditions: 10 μM; for percentage of the apoptotic cells in comparison with non treated cells: FIGS. 7-9; for time after which apoptosis is induced: propidium iodide, cytofluorimeter. As for the experimental part: as §1, §2

In a further assay the test system is Glivec resistant K562. Kind of assay: Apoptosis by propidium iodide flow cytofluorimetry, Glivec resistant K562. The class given is cell-based, human. The settings on record: 10 μM; for percentage of the apoptotic cells in comparison with non treated cells: FIGS. 7-9; for time after which apoptosis is induced: propidium iodide, cytofluorimeter. As for the experimental part:
as §1, §2

Assay [8] has as its system R2C cell line (rat Leydig tumour). Kind of assay: DNA fragmentation, R2C cell line. The class given is cell-based. Conditions: high concentrations (10 μM and 50 μM), FIG. 1 C.
The subject of assay [9] is mixed lymphocytic cultures from marrow or peripheral blood of patients suffering from chronic myelogenous leukemia. Kind of assay: DNA fragmentation, mixed lymphocytic cultures of CML patients. The class given is cell-based, human. Conditions: 10 μM.
In assay [10] the test system is OVCAR3 ovary carcinoma cell line. Briefly: DNA fragmentation, OVCAR3. The class given is cell-based, human. Conditions: 10 μM, 24 and 48 hours. The text has this:
(§3) The authors also have tested compounds according to the invention, in particular RS-678 and RS-779 compounds, also on OVCAR3 ovary carcinoma cell lines, ARO anaplastic thyroid and NPA papillary thyroid human carcinoma cell lines.

The subject of assay [11] is ARO anaplastic thyroid carcinoma cell line. Briefly: DNA fragmentation, ARO. It is filed as cell-based, human. The settings on record: 10 μM, 24 and 48 hours. As for the experimental part:
as §3
(§4) Subsequently, the same cell lines, except OVCAR3, were tested with fourteen new synthetic compounds at 10 μM concentration for 24 and 48 hours: eleven induced the expected cellular death.

The test system of assay [12] is NPA papillary thyroid carcinoma cell line. Briefly: DNA fragmentation, NPA. It is filed as cell-based, human. The settings on record: 10 μM, 24 and 48 hours. As for the experimental part: as §3, §4
For the next assay, the system named is caspase 8. Kind of assay: Western blot, caspase 8 activation in K562. It is filed as cell-based, human. Conditions: FIG. 3. As for the experimental part: (§5) Moreover, in order to elucidate the apoptotic pathway triggered by these two substances, Western Blotting experiments and tyrosine-kinase assays were carried out and evidenced that: (i) these compounds activate specific molecules involved in the apoptotic process (caspase 9 and caspase 8) (FIG. 3);
A general note: In western blotting, separated proteins are transferred to a membrane and probed.

In assay [13] the test system is caspase 9. Briefly: Western blot, caspase 9 activation in K562. The class given is cell-based, human. Conditions: FIG. 3. As to the method:
as §5

Assay [14] has as its system bcr-abl protein. Briefly: Western blot, bcr-abl protein expression. It is filed as cell-based, human. Conditions: after 16 hours of treatment; FIG. 4. As for the experimental part: (§6) Moreover, in order to elucidate the apoptotic pathway triggered by these two substances, Western Blotting experiments and tyrosine-kinase assays were carried out and evidenced that: […]
Assay [15] deals with T1, bcr-abl protein (Homo sapiens, UniProt P00519).
T1 construct: endogenous in cells; host or cells: K562; the other entry of the earlier key: BCR (P11274, Breakpoint cluster region protein)
Kind of assay: Tyrosine-kinase assay, bcr-abl phosphorylation pattern. It is filed as cell-based. Conditions: FIG. 4. As to the method:
as §6

In assay [16] the test system is K562 cell line. Kind of assay: DNA fragmentation, K562 leukemic cell line. It is filed as cell-based, human. Conditions: 5, 10, 15 μM, 8, 16 and 24 hours, FIG. 1 A, B.
In assay [17] the test system is caspase 9. Kind of assay: Western blot, caspase 9 in CML patient sample. It is filed as cell-based, human. The settings on record: 24 and 48 hours, FIG. 15.
The next assay has as its system ARO cell line. Briefly: Percentage of dead cells, ARO. The class given is cell-based, human. The settings on record: after 24 hours.
For the next assay, the system named is NPA cell line. Briefly: Percentage of apoptosis, NPA. The class given is cell-based, human. The settings on record: after 24 hours.
Assay [18] concerns K562 cell line. Briefly: Percentage of apoptosis, K562. It is filed as cell-based, human. Conditions: after 24 hours.
The test system of assay [19] is K562 cell line. Kind of assay: DNA fragmentation, K562 leukemic cell line. It is filed as cell-based, human. The settings on record: 10 μM, 24 and 48 hours, FIGS. 18, 20, 21. As to the method:
as §4

In assay [20] the test system is tested cell lines (K562, ARO, NPA). Briefly: Relative cellular death in the tested cell lines. The class given is cell-based, human. As for the experimental part:
as §4

In assay [21] the test system is RET/C634R transformed RAT1 fibroblasts. Conditions: 1 μl of ZD6474; cited from earlier work.
For assay [22], the system named is RET/V804L and RET/V804M transformed cells. The settings on record: same concentration (1 μl of ZD6474); cited from earlier work.
Setting [23] is: mixed lymphocytic cultures of CML patients, 8, 16, 24 and 48 hours.
Where [24] appears, read: samples from patients (some Glivec resistant), 24, 48 and 72 hours, FIGS. 12-14.

Each structure is given as a SMILES string. Entries after “also recorded” stand apart in the source; their conditions may differ.

T1 sequence (P00519 with tags, fused parts or gaps): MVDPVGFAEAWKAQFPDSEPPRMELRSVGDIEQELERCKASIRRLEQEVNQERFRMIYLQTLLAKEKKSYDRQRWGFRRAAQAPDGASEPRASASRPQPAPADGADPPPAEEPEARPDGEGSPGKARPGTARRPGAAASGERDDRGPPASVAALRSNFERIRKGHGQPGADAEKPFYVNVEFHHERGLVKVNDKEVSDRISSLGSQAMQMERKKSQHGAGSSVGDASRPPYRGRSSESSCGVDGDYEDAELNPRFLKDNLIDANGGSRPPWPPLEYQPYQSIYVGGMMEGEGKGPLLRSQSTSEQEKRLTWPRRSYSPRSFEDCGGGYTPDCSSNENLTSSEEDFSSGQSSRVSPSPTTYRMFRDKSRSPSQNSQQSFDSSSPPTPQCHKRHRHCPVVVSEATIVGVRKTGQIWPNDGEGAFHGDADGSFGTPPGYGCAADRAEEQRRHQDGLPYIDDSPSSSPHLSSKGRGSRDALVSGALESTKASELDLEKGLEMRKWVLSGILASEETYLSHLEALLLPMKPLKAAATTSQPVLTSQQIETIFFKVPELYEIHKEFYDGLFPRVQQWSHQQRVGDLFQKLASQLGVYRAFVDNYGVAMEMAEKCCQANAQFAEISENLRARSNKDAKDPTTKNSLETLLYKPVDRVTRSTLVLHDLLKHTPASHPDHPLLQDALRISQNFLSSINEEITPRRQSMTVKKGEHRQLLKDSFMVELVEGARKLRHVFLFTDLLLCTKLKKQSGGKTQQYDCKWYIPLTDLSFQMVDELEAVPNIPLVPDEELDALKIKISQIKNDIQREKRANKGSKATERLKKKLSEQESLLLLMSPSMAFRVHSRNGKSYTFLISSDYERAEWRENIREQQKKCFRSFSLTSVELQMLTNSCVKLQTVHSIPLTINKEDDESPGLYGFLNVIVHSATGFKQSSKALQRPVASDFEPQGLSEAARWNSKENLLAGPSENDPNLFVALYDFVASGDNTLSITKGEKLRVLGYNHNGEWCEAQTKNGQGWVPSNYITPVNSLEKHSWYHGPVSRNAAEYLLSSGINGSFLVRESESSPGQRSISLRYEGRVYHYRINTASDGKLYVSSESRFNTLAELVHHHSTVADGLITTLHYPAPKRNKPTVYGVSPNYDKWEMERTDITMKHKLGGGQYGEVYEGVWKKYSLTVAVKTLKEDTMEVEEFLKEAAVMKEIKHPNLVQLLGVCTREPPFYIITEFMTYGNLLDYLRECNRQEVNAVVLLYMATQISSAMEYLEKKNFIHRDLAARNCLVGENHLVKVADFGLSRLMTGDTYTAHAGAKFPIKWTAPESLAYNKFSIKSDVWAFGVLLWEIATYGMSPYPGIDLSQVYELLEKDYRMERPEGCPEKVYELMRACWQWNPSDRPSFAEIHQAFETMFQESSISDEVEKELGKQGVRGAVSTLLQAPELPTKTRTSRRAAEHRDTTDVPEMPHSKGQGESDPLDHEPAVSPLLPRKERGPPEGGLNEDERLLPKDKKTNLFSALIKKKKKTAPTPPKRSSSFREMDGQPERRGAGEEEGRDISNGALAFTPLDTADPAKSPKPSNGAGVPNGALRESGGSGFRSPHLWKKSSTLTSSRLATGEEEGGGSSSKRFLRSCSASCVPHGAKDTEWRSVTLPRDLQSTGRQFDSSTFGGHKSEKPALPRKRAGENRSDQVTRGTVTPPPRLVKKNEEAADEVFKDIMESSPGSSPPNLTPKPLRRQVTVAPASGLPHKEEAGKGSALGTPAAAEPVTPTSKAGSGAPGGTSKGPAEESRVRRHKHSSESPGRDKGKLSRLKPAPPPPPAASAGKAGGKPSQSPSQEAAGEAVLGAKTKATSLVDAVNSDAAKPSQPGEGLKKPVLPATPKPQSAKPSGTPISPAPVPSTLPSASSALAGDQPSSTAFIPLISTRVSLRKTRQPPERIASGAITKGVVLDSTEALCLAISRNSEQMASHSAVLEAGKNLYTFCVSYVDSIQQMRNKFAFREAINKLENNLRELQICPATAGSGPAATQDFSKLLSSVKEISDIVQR
RET kinase, sequence (P07949 29-1114): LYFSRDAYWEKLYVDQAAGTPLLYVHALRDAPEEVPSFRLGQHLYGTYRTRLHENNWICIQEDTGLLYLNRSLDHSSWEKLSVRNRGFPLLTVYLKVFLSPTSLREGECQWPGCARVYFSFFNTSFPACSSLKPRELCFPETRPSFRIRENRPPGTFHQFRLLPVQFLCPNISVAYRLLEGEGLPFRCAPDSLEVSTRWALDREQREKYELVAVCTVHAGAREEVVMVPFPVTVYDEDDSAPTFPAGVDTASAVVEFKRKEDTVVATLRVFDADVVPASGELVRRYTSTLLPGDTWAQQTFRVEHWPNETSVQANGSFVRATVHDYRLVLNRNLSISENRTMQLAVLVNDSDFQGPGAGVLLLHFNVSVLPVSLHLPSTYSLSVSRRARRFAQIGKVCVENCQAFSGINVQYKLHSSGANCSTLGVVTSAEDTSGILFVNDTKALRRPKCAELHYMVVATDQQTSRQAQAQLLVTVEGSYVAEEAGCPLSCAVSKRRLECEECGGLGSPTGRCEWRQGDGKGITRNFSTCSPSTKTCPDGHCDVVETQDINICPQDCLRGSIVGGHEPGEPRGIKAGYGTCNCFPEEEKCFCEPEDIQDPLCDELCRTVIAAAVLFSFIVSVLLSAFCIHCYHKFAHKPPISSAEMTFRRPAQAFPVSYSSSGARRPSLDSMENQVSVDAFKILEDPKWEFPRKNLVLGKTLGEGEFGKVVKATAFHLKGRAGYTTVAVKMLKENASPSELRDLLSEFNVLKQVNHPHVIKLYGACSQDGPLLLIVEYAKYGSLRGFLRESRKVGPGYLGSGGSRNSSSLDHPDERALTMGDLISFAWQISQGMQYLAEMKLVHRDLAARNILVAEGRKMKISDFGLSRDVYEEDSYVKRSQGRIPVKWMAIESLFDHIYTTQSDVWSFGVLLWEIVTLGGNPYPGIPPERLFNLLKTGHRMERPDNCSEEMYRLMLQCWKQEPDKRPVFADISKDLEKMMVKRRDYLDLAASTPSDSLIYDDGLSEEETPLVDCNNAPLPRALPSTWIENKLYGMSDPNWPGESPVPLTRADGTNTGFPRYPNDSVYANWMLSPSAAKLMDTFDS

Take `Cc1ccc(-c2nn(C(C)(C)C)c3ncnc(N)c23)cc1` [PP1]: the “block of the transforming activity” value in assay [1] is listed as “able to block”. The “inhibition of in vivo self-phosphorylation” value (“inhibition” for short) in assay [2] is recorded as “inhibited effectively”. In addition, the “sensitivity to the action of inhibitors” value in assay [3] is on record as “less sensitive”.

As to `CC(C)(C)n1nc(-c2ccc(Cl)cc2)c2c(N)ncnc21` [PP2], on RET kinase, the “inhibiting activity with respect to RET kinase” value is recorded as “strong inhibiting activity”. Besides, the “block of the transforming activity” value in assay [1] is listed as “able to block”. In addition, the “inhibition” value in assay [2] is recorded as “inhibited effectively”. In assay [3], the “sensitivity to the action of inhibitors” value is “less sensitive”.

For `CCOC(=O)C1Nc2ccccc2S(=O)(=O)n2cccc21` (centres unmarked) [RS-678, ethyl 10,11-dihydropyrrolo[1,2-b][1,2,5]benzothiadiazepine-11-carboxylate 5,5-dioxide], the “percentage of the apoptotic cells in comparison with non treated cells” value (in assay [4]; in assay [5]; in assay [6]; in assay [7]; with Glivec resistant K562) was “increase” throughout. Also, the “time after which apoptosis is induced” value was 8 h in assay [4]; 8 h in assay [5]; 8 h in assay [6]; 8 h in assay [7]; 16 h in the assay with Glivec resistant K562. Further, the DNA fragmentation result in [8] is “does not occur”; in assay [9] (setting [23]), “fragmentation of the DNA”; in [9] (setting [24]), “DNA fragmentation”; in assay [10], “induction of the DNA fragmentation”; in assay [11], “induction of the DNA fragmentation”; in assay [12] it was “induction of the DNA fragmentation”. Further, the “activation of caspase 8 (Western blot)” value in the assay with caspase 8 is “activation”. In addition, in the assay with caspase 9 [13], the “activation of caspase 9 (Western blot)” value is “activation”. Moreover, the “down-regulation of the bcr-abl protein (Western blot)” value in the assay on bcr-abl protein [14] is given as “down-regulation”. For the same compound, the “changes in the phosphorylation pattern of the bcr-abl protein (tyrosine-kinase assay)” value at bcr-abl protein [15] was “not observed”. In addition, the “apoptosis / DNA fragmentation” value with K562 cell line [16] is recorded as “able to induce apoptosis; also recorded: DNA fragmentation”.

Regarding `CCOC(=O)C1c2cccn2S(=O)(=O)c2ccccc2N1C(=O)c1ccc(C)cc1` (centres unmarked) [RS-779, ethyl 10,11-dihydro-10-(4-methylbenzoyl)pyrrolo[1,2-b][1,2,5]benzothiadiazepine-11-carboxylate 5,5-dioxide], the “percentage of the apoptotic cells in comparison with non treated cells” value (in assay [4]; in assay [5]; in assay [6]; in [7]; in the assay with Glivec resistant K562) was “increase” throughout. Also, the “time after which apoptosis is induced” value in assay [4] worked out at 8 h; in assay [5], 8 h; in [6] it was 8 h; in assay [7] it was 8 h; in the assay on Glivec resistant K562 it was 16 h. Besides, the DNA fragmentation result in assay [8] is listed as “does not occur”; in assay [9] (setting [23]), “fragmentation of the DNA”; in assay [9] (setting [24]), “DNA fragmentation”; in [10], “induction of the DNA fragmentation”; in assay [11], “induction of the DNA fragmentation”; in assay [12], “induction of the DNA fragmentation”. Further, in the assay with caspase 8, the “activation of caspase 8 (Western blot)” value is listed as “activation”. For the same compound, the “activation of caspase 9 (Western blot)” value with caspase 9 [13] is reported as “activation”; in the assay on caspase 9 [17] it was “strong activation”. In addition, the “down-regulation of the bcr-abl protein (Western blot)” value in the assay with bcr-abl protein [14] is “down-regulation”. On bcr-abl protein [15], the “changes in the phosphorylation pattern of the bcr-abl protein (tyrosine-kinase assay)” value was “not observed”. In addition, in the assay with ARO cell line, the “percentage of dead cells” value stood at 45%. Further, the percentage of apoptosis in the assay on NPA cell line was 50%; in the assay on K562 cell line [18] it was 70%. Besides, the “apoptosis / DNA fragmentation” value in the assay on K562 cell line [16] is “able to induce apoptosis; also recorded: DNA fragmentation”.

In the case of `CCOC(=O)C1c2cccn2S(=O)(=O)c2ccccc2N1C(=O)c1ccc(Cl)cc1` (centres unmarked) [RS-2630, ethyl 10,11-dihydro-10-(4-chlorobenzoyl)pyrrolo[1,2-b][1,2,5]benzothiadiazepine-11-carboxylate 5,5-dioxide], the DNA fragmentation entry (in the assay with K562 cell line [19]; in assay [11]; in [12]) was “DNA fragmentation” each time. Besides, in the assay on ARO cell line, the “percentage of dead cells” value is given as “approximately 60%”. In addition, the percentage of apoptosis in the assay with NPA cell line was determined as 80%; in the assay on K562 cell line [18], 85%. In [20], the “cellular death relative to other compounds” value is listed as “greater cellular death”.

For `COc1cc2c(Nc3ccc(Br)cc3F)ncnc2cc1OCC1CCN(C)CC1` [ZD6474], the “block of the transforming activity” value in assay [1] is given as “able to block”. Also, in assay [2], the “inhibition” value was “inhibited effectively”. For the same compound, the “sensitivity to the action of inhibitors” value in [3] is on record as “less sensitive”. Further, the proliferation entry in [21] is reported as “reduces strongly”. For the same compound, in [22], the growth result was “no effect”.
